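Exposure lasted 48 hours, with cells grown in 96-well plates and compounds tested at five concentrations. The concentration for full growth arrest is given as TGI.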
What was measured:
Assay in all cases: growth of human tumour cells (NCI), 48 h
COLO 205 colon = tested on: COLO 205 colon
HCT-116 colon = tested on: HCT-116 colon
HCT-15 colon = tested on: HCT-15 colon
HT29 colon = tested on: HT29 colon
OVCAR-5 ovarian = tested on: OVCAR-5 ovarian
SK-MEL-5 melanoma = tested on: SK-MEL-5 melanoma
MDA-MB-231 breast = tested on: MDA-MB-231 breast
MCF7 breast = tested on: MCF7 breast
SF-539 CNS = tested on: SF-539 CNS
HOP-92 NSCLC = tested on: HOP-92 NSCLC
PC-3 prostate = tested on: PC-3 prostate
SF-295 CNS = tested on: SF-295 CNS
T-47D breast = tested on: T-47D breast
NCI-H226 lung = tested on: NCI-H226 lung
LOX IMVI melanoma = tested on: LOX IMVI melanoma
NCI-H23 lung = tested on: NCI-H23 lung
HOP-62 NSCLC = tested on: HOP-62 NSCLC
CAKI-1 renal = tested on: CAKI-1 renal
RPMI-8226 leukemia = tested on: RPMI-8226 leukemia
HCC-2998 colon = tested on: HCC-2998 colon
NCI-H522 lung = tested on: NCI-H522 lung
IGROV1 ovarian = tested on: IGROV1 ovarian
NCI-H460 lung = tested on: NCI-H460 lung
SNB-19 CNS = tested on: SNB-19 CNS
UACC-257 melanoma = tested on: UACC-257 melanoma
OVCAR-4 ovarian = tested on: OVCAR-4 ovarian
SK-MEL-2 melanoma = tested on: SK-MEL-2 melanoma
UO-31 renal = tested on: UO-31 renal
SK-MEL-28 melanoma = tested on: SK-MEL-28 melanoma
K-562 leukemia = tested on: K-562 leukemia
MALME-3M melanoma = tested on: MALME-3M melanoma
BT-549 breast = tested on: BT-549 breast
MDA-N = tested on: MDA-N
KM12 colon = tested on: KM12 colon
A498 renal = tested on: A498 renal
HL-60(TB) leukemia = tested on: HL-60(TB) leukemia
HS 578T breast = tested on: HS 578T breast
SF-268 CNS = tested on: SF-268 CNS
786-0 renal = tested on: 786-0 renal
ACHN renal = tested on: ACHN renal
OVCAR-8 ovarian = tested on: OVCAR-8 ovarian
RXF 393 renal = tested on: RXF 393 renal
SK-OV-3 ovarian = tested on: SK-OV-3 ovarian
SN12C renal = tested on: SN12C renal
M14 melanoma = tested on: M14 melanoma
NCI/ADR-RES ovarian = tested on: NCI/ADR-RES ovarian
SR leukemia = tested on: SR leukemia
SW-620 colon = tested on: SW-620 colon
OVCAR-3 ovarian = tested on: OVCAR-3 ovarian
MOLT-4 leukemia = tested on: MOLT-4 leukemia
U251 CNS = tested on: U251 CNS
MDA-MB-435 = tested on: MDA-MB-435
CCRF-CEM leukemia = tested on: CCRF-CEM leukemia
DU-145 prostate = tested on: DU-145 prostate
EKVX NSCLC = tested on: EKVX NSCLC
A549 NSCLC = tested on: A549 NSCLC
SNB-75 CNS = tested on: SNB-75 CNS
UACC-62 melanoma = tested on: UACC-62 melanoma
TK-10 renal = tested on: TK-10 renal

`COC(=O)CN1Cc2cc(C)cc(c2O)CN(CC(=O)OC)Cc2cc(C)cc(c2O)CN(CC(=O)OC)Cc2cc(C)cc(c2O)C1` gave a TGI (COLO 205 colon) of over 100 µM, a TGI (HCT-116 colon) of over 100 µM and a TGI (HCT-15 colon) of over 100 µM. For the same compound, the TGI (HT29 colon) was over 100 µM, the TGI (OVCAR-5 ovarian) was over 100 µM and the TGI (SK-MEL-5 melanoma) was over 100 µM. It also gave a TGI (MDA-MB-231 breast) of over 77.2 µM, a TGI (MCF7 breast) of over 96.3 µM and a TGI (SF-539 CNS) of over 100 µM. It also gave a TGI (HOP-92 NSCLC) of over 100 µM, a TGI (PC-3 prostate) of over 73.7 µM and a TGI (SF-295 CNS) of over 100 µM. The TGI (T-47D breast) was over 68.5 µM, the TGI (NCI-H226 lung) was over 61.3 µM and the TGI (LOX IMVI melanoma) was over 100 µM. For the same compound, the TGI (NCI-H23 lung) was over 100 µM, the TGI (HOP-62 NSCLC) was over 100 µM and the TGI (CAKI-1 renal) was over 100 µM. It also gave a TGI (RPMI-8226 leukemia) of over 100 µM, a TGI (HCC-2998 colon) of over 100 µM and a TGI (NCI-H522 lung) of over 100 µM. The TGI (IGROV1 ovarian) was over 100 µM, the TGI (NCI-H460 lung) was over 100 µM and the TGI (SNB-19 CNS) was over 100 µM. For the same compound, the TGI (UACC-257 melanoma) was over 100 µM, the TGI (OVCAR-4 ovarian) was over 100 µM and the TGI (SK-MEL-2 melanoma) was over 77.1 µM. For the same compound, the TGI (UO-31 renal) was over 100 µM, the TGI (SK-MEL-28 melanoma) was over 100 µM and the TGI (K-562 leukemia) was over 100 µM. It also gave a TGI (MALME-3M melanoma) of over 100 µM, a TGI (BT-549 breast) of over 100 µM and a TGI (MDA-N) of over 100 µM. It also gave a TGI (KM12 colon) of over 100 µM, a TGI (A498 renal) of over 84.3 µM and a TGI (HL-60(TB) leukemia) of over 100 µM. For the same compound, the TGI (HS 578T breast) was over 100 µM, the TGI (SF-268 CNS) was over 100 µM and the TGI (786-0 renal) was over 100 µM. It also gave a TGI (ACHN renal) of over 100 µM, a TGI (OVCAR-8 ovarian) of over 100 µM and a TGI (RXF 393 renal) of over 75 µM. The TGI (SK-OV-3 ovarian) was over 100 µM, the TGI (SN12C renal) was over 100 µM and the TGI (M14 melanoma) was over 86.6 µM. The TGI (NCI/ADR-RES ovarian) was over 100 µM, the TGI (SR leukemia) was over 100 µM and the TGI (SW-620 colon) was over 100 µM. The TGI (OVCAR-3 ovarian) was over 100 µM, the TGI (MOLT-4 leukemia) was over 100 µM and the TGI (U251 CNS) was over 100 µM. It also gave a TGI (MDA-MB-435) of over 100 µM, a TGI (CCRF-CEM leukemia) of over 100 µM and a TGI (DU-145 prostate) of over 100 µM. The TGI (EKVX NSCLC) was over 100 µM, the TGI (A549 NSCLC) was over 100 µM and the TGI (SNB-75 CNS) was over 74.7 µM. The TGI (UACC-62 melanoma) was over 100 µM and the TGI (TK-10 renal) was over 100 µM.
With `O=C1C(N2CCOCC2)=C(Cl)C(=O)c2ncccc21` the TGI (COLO 205 colon) was 3.91 µM, the TGI (HCT-116 colon) was 3.1 µM and the TGI (HCT-15 colon) was 4.11 µM. It also gave a TGI (HT29 colon) of over 10 µM, a TGI (OVCAR-5 ovarian) of over 10 µM and a TGI (SK-MEL-5 melanoma) of 3.26 µM. For the same compound, the TGI (MDA-MB-231 breast) was 5.24 µM, the TGI (MCF7 breast) was 3.59 µM and the TGI (SF-539 CNS) was over 10 µM. It also gave a TGI (HOP-92 NSCLC) of 2.84 µM, a TGI (PC-3 prostate) of over 10 µM and a TGI (SF-295 CNS) of over 10 µM. It also gave a TGI (T-47D breast) of 3.92 µM, a TGI (NCI-H226 lung) of over 10 µM and a TGI (LOX IMVI melanoma) of 4.92 µM. The TGI (NCI-H23 lung) was 3.55 µM, the TGI (HOP-62 NSCLC) was over 10 µM and the TGI (CAKI-1 renal) was over 10 µM. It also gave a TGI (RPMI-8226 leukemia) of 4.34 µM, a TGI (HCC-2998 colon) of over 9.5 µM and a TGI (NCI-H522 lung) of 2.85 µM. It also gave a TGI (IGROV1 ovarian) of over 10 µM, a TGI (NCI-H460 lung) of over 10 µM and a TGI (SNB-19 CNS) of over 10 µM. The TGI (UACC-257 melanoma) was 3.52 µM, the TGI (OVCAR-4 ovarian) was 2.89 µM and the TGI (SK-MEL-2 melanoma) was 3.77 µM. For the same compound, the TGI (UO-31 renal) was over 5.86 µM, the TGI (SK-MEL-28 melanoma) was 4.67 µM and the TGI (K-562 leukemia) was 5.03 µM. For the same compound, the TGI (MALME-3M melanoma) was 3.45 µM, the TGI (BT-549 breast) was over 10 µM and the TGI (MDA-N) was 3.48 µM. The TGI (KM12 colon) was over 5.35 µM, the TGI (A498 renal) was over 10 µM and the TGI (HL-60(TB) leukemia) was 0.534 µM. For the same compound, the TGI (HS 578T breast) was over 10 µM, the TGI (SF-268 CNS) was over 7.37 µM and the TGI (786-0 renal) was 3.24 µM. For the same compound, the TGI (ACHN renal) was 3.49 µM, the TGI (OVCAR-8 ovarian) was over 5.73 µM and the TGI (RXF 393 renal) was 2.91 µM. It also gave a TGI (SK-OV-3 ovarian) of over 10 µM, a TGI (SN12C renal) of 3.15 µM and a TGI (M14 melanoma) of 4.97 µM. For the same compound, the TGI (NCI/ADR-RES ovarian) was over 10 µM, the TGI (SR leukemia) was 2.2 µM and the TGI (SW-620 colon) was 3.72 µM. For the same compound, the TGI (OVCAR-3 ovarian) was 3.39 µM, the TGI (MOLT-4 leukemia) was 3.19 µM and the TGI (U251 CNS) was over 10 µM. The TGI (MDA-MB-435) was 3.22 µM, the TGI (CCRF-CEM leukemia) was 2.16 µM and the TGI (DU-145 prostate) was over 10 µM. The TGI (EKVX NSCLC) was over 10 µM, the TGI (A549 NSCLC) was over 10 µM and the TGI (SNB-75 CNS) was over 10 µM. It also gave a TGI (UACC-62 melanoma) of 5.51 µM and a TGI (TK-10 renal) of 4.71 µM.
`CCN(CC)CCCNc1[nH]ncc2cc3c(nc4ccc(OC)cc43)c(C)c12` was tested, and the TGI (COLO 205 colon) was 21.2 µM, the TGI (HCT-116 colon) was 13 µM and the TGI (HCT-15 colon) was 41.3 µM. It also gave a TGI (HT29 colon) of 16.2 µM, a TGI (OVCAR-5 ovarian) of 24.8 µM and a TGI (SK-MEL-5 melanoma) of 29.4 µM. For the same compound, the TGI (MDA-MB-231 breast) was 21.2 µM, the TGI (MCF7 breast) was 16.6 µM and the TGI (SF-539 CNS) was 15.2 µM. It also gave a TGI (HOP-92 NSCLC) of 29.8 µM, a TGI (PC-3 prostate) of 16.5 µM and a TGI (SF-295 CNS) of 25.7 µM. It also gave a TGI (T-47D breast) of 26.5 µM, a TGI (NCI-H226 lung) of 22.6 µM and a TGI (LOX IMVI melanoma) of 15.8 µM. For the same compound, the TGI (NCI-H23 lung) was 24.6 µM, the TGI (HOP-62 NSCLC) was 16.4 µM and the TGI (CAKI-1 renal) was 24.7 µM. The TGI (RPMI-8226 leukemia) was 46.8 µM, the TGI (HCC-2998 colon) was 18.8 µM and the TGI (NCI-H522 lung) was 17.4 µM. It also gave a TGI (IGROV1 ovarian) of 19.5 µM, a TGI (NCI-H460 lung) of 17 µM and a TGI (SNB-19 CNS) of 18 µM. The TGI (UACC-257 melanoma) was 33.7 µM, the TGI (OVCAR-4 ovarian) was 13.8 µM and the TGI (SK-MEL-2 melanoma) was 33.9 µM. For the same compound, the TGI (UO-31 renal) was 23.8 µM, the TGI (SK-MEL-28 melanoma) was 30.8 µM and the TGI (K-562 leukemia) was 16.3 µM. For the same compound, the TGI (MALME-3M melanoma) was 28.3 µM, the TGI (BT-549 breast) was 30.9 µM and the TGI (MDA-N) was 22.3 µM. It also gave a TGI (KM12 colon) of 15.7 µM, a TGI (A498 renal) of 30.7 µM and a TGI (HL-60(TB) leukemia) of 0.0166 µM. It also gave a TGI (HS 578T breast) of 28.5 µM, a TGI (SF-268 CNS) of over 48.1 µM and a TGI (786-0 renal) of 15.4 µM. The TGI (ACHN renal) was 20.9 µM, the TGI (OVCAR-8 ovarian) was 18.9 µM and the TGI (RXF 393 renal) was 17.7 µM. The TGI (SK-OV-3 ovarian) was 22.3 µM, the TGI (SN12C renal) was 18.7 µM and the TGI (M14 melanoma) was 25.6 µM. For the same compound, the TGI (NCI/ADR-RES ovarian) was over 100 µM, the TGI (SR leukemia) was 33.1 µM and the TGI (SW-620 colon) was 19.4 µM. For the same compound, the TGI (OVCAR-3 ovarian) was 19.1 µM, the TGI (MOLT-4 leukemia) was 10.9 µM and the TGI (U251 CNS) was 16 µM. It also gave a TGI (MDA-MB-435) of 23.1 µM, a TGI (CCRF-CEM leukemia) of 16.5 µM and a TGI (DU-145 prostate) of 15.9 µM. For the same compound, the TGI (EKVX NSCLC) was 31.4 µM, the TGI (A549 NSCLC) was 22.2 µM and the TGI (SNB-75 CNS) was 23 µM. It also gave a TGI (UACC-62 melanoma) of 35.8 µM and a TGI (TK-10 renal) of 28.8 µM.
